Read-outs that look alike come from different tables or passages of the source.
How the values were obtained:
IL-1Ra = IL-1Ra production by LPS-stimulated PBMCs (multiplex); type: cell-based, human; conditions: 1×10^−4M anti-oxidant 2 hrs, then LPS 18 hrs
Excerpt: (§1) Cell Culture—PBMCs were isolated from buffy coats derived from healthy donors (Sylvan N. Goldman Oklahoma Blood Institute, Oklahoma City, Okla., USA) by density gradient centrifugation (Ficoll-Paque plus; GE Healthcare, Piscataway, N.J., USA). Oleuropein (purity=80.17%) was purchased from Sabinsa Corporation (Payson, Utah, USA). Silymarin (purity≥95%), ferulic acid (purity≥98%), hesperetin (purity≥95%), resveratrol (purity≥99%), and phloretin (purity≥99%) were purchased from Sigma-Aldrich (St Louis, Mo., USA). Dimethyl sulfoxide (DMSO) (purity=99.90%) was purchased from EMD Millipore (Billerica, Mass., USA). […]
(§2) PBMCs were seeded at either 4×10^5 or 1.2×10^6 cells in 96- or 48-well tissue culture plates (BD Biosciences, Franklin Lakes, N.J., USA) respectively. […] After 2 hrs the absorbance at 490 nm was recorded using a 96-well plate reader.
(§3) Human Cytokine Fluorokine MAP kit was purchased from R & D Systems (Minneapolis, Minn., USA). Readouts included TNF-α, IL-1α, IL-1β, IL-1Ra, IL-2, IL-4, IL-5, IL-6, IL-8, IL-10, IL-17, macrophage inflammatory protein (MIP)-1α (MIP-1α), MIP-1β, interferon-γ (IFN-γ), granulocyte-colony stimulating factor (G-CSF), granulocyte macrophage-colony stimulating factor (GM-CSF), macrophage chemotactic protein (MCP-1), CCL5, CXCL5, vascular endothelial growth factor (VEGF), thrombopoietin (TPO) and fibroblast growth factor basic (FGFb). […]

TNF-α = TNF-α production by Aa Y4 LPS-stimulated PBMCs (ELISA); type: cell-based, human; conditions: PBMCs pre-treated 2 hrs with 1×10^−4M anti-oxidant, then LPS 18 hrs
Excerpt: (§4) Cell Culture—PBMCs were isolated from buffy coats derived from healthy donors (Sylvan N. Goldman Oklahoma Blood Institute, Oklahoma City, Okla., USA) by density gradient centrifugation (Ficoll-Paque plus; GE Healthcare, Piscataway, N.J., USA). Oleuropein (purity=80.17%) was purchased from Sabinsa Corporation (Payson, Utah, USA). Silymarin (purity≥95%), ferulic acid (purity≥98%), hesperetin (purity≥95%), resveratrol (purity≥99%), and phloretin (purity≥99%) were purchased from Sigma-Aldrich (St Louis, Mo., USA). Dimethyl sulfoxide (DMSO) (purity=99.90%) was purchased from EMD Millipore (Billerica, Mass., USA). Oleuropein, silymarin, ferulic acid, hesperetin, resveratrol and phloretin were provided as 0.1M stock solutions prepared in DMSO by Periosciences Ltd (Dallas, Tex., USA).
PBMCs were seeded at either 4×10^5 or 1.2×10^6 cells in 96- or 48-well tissue culture plates (BD Biosciences, Franklin Lakes, N.J., USA) respectively. PBMCs were pre-treated with single antioxidants at a concentration of 1×10^−4 M or combinations of antioxidants with a combined concentration of 1×10^−4 M for 2 hrs prior to stimulation. […] S.C.) at a concentration of 1 μg/ml in the presence of antioxidants. Media were collected, spun at 1600 RPM and cell-free supernatants transferred to fresh tubes and stored at −20 C. Cell viability was assayed using CellTiter 96® AQueous One Solution Reagent (Promega, Madison, Wis., USA) following the manufacturers guidelines. 20 μl of the reagent was added to each well and incubated for 2 hrs under culture conditions. After 2 hrs the absorbance at 490 nm was recorded using a 96-well plate reader.
ELISA and Multiplex Assays—Human tumour necrosis factor-alpha (TNF-α) capture and detection Abs were purchased from Life Technologies (Carlsbad, Calif., USA) and used for the development of a TNF-α sandwich ELISA according to the manufacturer's instructions. Cell culture supernatants were analyzed using a 96-well plate reader with absorbance at 450 nm (reference 650 nm).
Stimulation of PBMCs with Aa Y4 LPS—To establish the optimal concentrations of anti-oxidants and LPS for this study, dose and kinetic experiments were performed. The doses examined were: 1×10^−4, 1×10^−5 and 1×10^−6M while the challenge concentrations of Aa Y4 LPS were 1, 10, 100 or 1000 ng/ml. Whole blood was stimulated with several concentrations of E. coli or Aa Y4 LPS and TNF-α production quantified by ELISA over 3 time-points: 16, 24 and 48 hrs.

G-CSF = G-CSF production by LPS-stimulated PBMCs (multiplex); type: cell-based, human; conditions: 1×10^−4M anti-oxidant 2 hrs, then LPS 18 hrs
Description: Cell Culture—PBMCs were isolated from buffy coats derived from healthy donors (Sylvan N. Goldman Oklahoma Blood Institute, Oklahoma City, Okla., USA) by density gradient centrifugation (Ficoll-Paque plus; GE Healthcare, Piscataway, N.J., USA). Oleuropein (purity=80.17%) was purchased from Sabinsa Corporation (Payson, Utah, USA). […] Dimethyl sulfoxide (DMSO) (purity=99.90%) was purchased from EMD Millipore (Billerica, Mass., USA). Oleuropein, silymarin, ferulic acid, hesperetin, resveratrol and phloretin were provided as 0.1M stock solutions prepared in DMSO by Periosciences Ltd (Dallas, Tex., USA).
PBMCs were seeded at either 4×10^5 or 1.2×10^6 cells in 96- or 48-well tissue culture plates (BD Biosciences, Franklin Lakes, N.J., USA) respectively. PBMCs were pre-treated with single antioxidants at a concentration of 1×10^−4 M or combinations of antioxidants with a combined concentration of 1×10^−4 M for 2 hrs prior to stimulation. PBMCs were then stimulated for 16 hrs with purified LPS isolated from the bacterium Actinobacillus actinomycetemcomitans, strain Y4 (Aa Y4); a kind gift of Dr Kirkwood, Univ. S.C.) at a concentration of 1 μg/ml in the presence of antioxidants. Media were collected, spun at 1600 RPM and cell-free supernatants transferred to fresh tubes and stored at −20 C. Cell viability was assayed using CellTiter 96® AQueous One Solution Reagent (Promega, Madison, Wis., USA) following the manufacturers guidelines. […] After 2 hrs the absorbance at 490 nm was recorded using a 96-well plate reader.

IL-10 = IL-10 production by LPS-stimulated PBMCs (multiplex); type: cell-based, human; conditions: 1×10^−4M anti-oxidant 2 hrs, then LPS 18 hrs
Excerpt: as §1, §2, §3

IL-6 = IL-6 production by LPS-stimulated PBMCs (multiplex); type: cell-based, human; conditions: 1×10^−4M anti-oxidant 2 hrs, then LPS 18 hrs
Excerpt: as §4
(§5) PBMCs were seeded at either 4×10^5 or 1.2×10^6 cells in 96- or 48-well tissue culture plates (BD Biosciences, Franklin Lakes, N.J., USA) respectively. PBMCs were pre-treated with single antioxidants at a concentration of 1×10^−4 M or combinations of antioxidants with a combined concentration of 1×10^−4 M for 2 hrs prior to stimulation. PBMCs were then stimulated for 16 hrs with purified LPS isolated from the bacterium Actinobacillus actinomycetemcomitans, strain Y4 (Aa Y4); a kind gift of Dr Kirkwood, Univ. S.C.) at a concentration of 1 μg/ml in the presence of antioxidants. Media were collected, spun at 1600 RPM and cell-free supernatants transferred to fresh tubes and stored at −20 C. […] After 2 hrs the absorbance at 490 nm was recorded using a 96-well plate reader.
as §3

IFN-γ = IFN-γ production by LPS-stimulated PBMCs (multiplex); type: cell-based, human; conditions: 1×10^−4M anti-oxidant 2 hrs, then LPS 18 hrs
Excerpt: as §4, §5, §3

IL-1α = IL-1α production by LPS-stimulated PBMCs (multiplex); type: cell-based, human; conditions: 1×10^−4M anti-oxidant 2 hrs, then LPS 18 hrs
Excerpt: as §4, §5, §3

[1] = system: fibroblasts from human gingival (HGF) and human periodontal ligament (HPDF) cells
Description: A study was done to determine the antioxidant effect on fibroblasts from human gingival (HGF) and human periodontal ligament (HPDF) cells exposed to increasing concentration of cytotoxic metals. HGF and HPDF cells were extracted and seeded with 10% fetal bovine serum (FBS). Both the HGF and HPDF cells were then exposed to one of 3×10^−4M or 2×10^−4M ZnCl2, 2×10^−3M or 1×10^−3M NiCl2, 5×10^−4M or 4×10^−4M CuCl2. Next, the samples were treated with bioactive antioxidant (AO) mixtures at single, double, and triple combinations; resveratrol (R), ferulic acid (F), phloretin (P), and tetrahydrocurcuminoids (T). Both the HGF and HPDF cells were then monitored by MTS, ROS, and BrdU assays.

[2] = system: Oral fibroblasts obtained from human gingival (HGF) tissues; test: MTS cell viability assay of HGF cells pre-treated with Zn, Cu and Ni, then AO mixtures
Description: (§6) In dentistry, the use of metals in fillings, braces, bridges and other prosthodontic restorations may form free radicals. […] A study was conducted to determine if oral fibroblasts are susceptible to damage from these agents which elevate reaction oxygen species (ROS). In this study, specific antioxidant (AO) combinations were investigated that counteract the effects of Zn, Cu and Ni on cultured oral fibroblast proliferation and oxidative damage. Oral fibroblasts obtained from human gingival (HGF) tissues were seeded into 96-well plates. After achieving 70% confluence, the cells were pre-treated with Zn, Cu and Ni for 30 and 60 minutes. Thereafter, cells were exposed to 10^-5M of the bioactive AO mixtures; resveratrol (R), ferulic acid (F) phloretin (P) and tetrahydrocurcuminoids (T); (RFT, PFR, PFT) for 24 hours. Cell viability was monitored by MTS assay. The fluorescence response of dichlorodihydrofluorescein diacetate to various ROS was measured.
(§7) A study was conducted to determine if oral fibroblasts are susceptible to damage from these agents by decreasing cell viability and whether specific antioxidants (AO) in combinations can counteract these effects. Oral fibroblasts obtained from human gingival (HGF) tissues were seeded into 96-well plates. After achieving 70% confluence, the cells were pre-treated with Zn, Cu and Ni for 30 and 60 minutes. Thereafter, cells were exposed to 10^-5M of the bioactive AO mixtures at single, double and triple combinations; resveratrol (R), ferulic acid (F), phloretin (P), and tetrahydrocurcuminoids (T) for 24 hours. Cell viability was monitored by MTS assay.

[3] = system: Oral fibroblasts obtained from human gingival (HGF) tissues
Description: as §6, §7

IκB-α mRNA = test: RT-PCR of IκB-α mRNA in LPS-stimulated PBMCs (NF-κB activation); type: cell-based, human
Description: (§8) RT-PCR Assays—Total RNA was extracted from homogenized cells using the miRNeasy kit (Qiagen, Valencia, Calif., USA) according to the manufacturer's protocol. Total RNA quantified on Nanodrop (ThermoScientific, Rockford, Ill., USA) was used for first strand cDNA synthesis using the SS RTIII kit (Life Technologies, Carlsbad, Calif., USA). Real-time PCR was performed using EvaGreen 2× master mix (Biotium, Hayward, Calif., USA), 10 pmol forward and reverse gene specific primers and 1 ul of 1:10 diluted cDNA. GAPDH was used as endogenous control. The fold change was calculated using 2-ΔΔCt method and the control was set at 1. Custom primers were purchased from Sigma-Aldrich (St Louis, Mo., USA). Primer sequences for TNF-α were: Forward, […], Reverse: […]. Primer sequences for IκB-α were: Forward, […], Reverse: […]. Data Analysis—Statistics were performed using two-tailed t-test or one-way analysis of variance (ANOVA). Statistical significance is indicated by an asterisk *, where p≤0.05. Error bars on all graphs indicate standard error of mean (SEM) or standard deviation (SD).
(§9) Inhibition of TNF-α is present at the level of mRNA transcription—Whether the reduced production of inflammatory mediators was due to decreased mRNA transcription was investigated. […] After 4 hrs the cells were harvested, total RNA isolated and RT-PCR performed to measure the levels of TNF-α mRNA present. […]

IL-1β = IL-1β production by LPS-stimulated PBMCs (multiplex, FIG. 9D); type: cell-based, human; conditions: 1×10^−4M anti-oxidant 2 hrs, then LPS 18 hrs
Excerpt: as §1, §2, §3

TNF-α mRNA = test: RT-PCR of TNF-α mRNA in LPS-stimulated PBMCs; type: cell-based, human; conditions: harvested after 4 hrs, 2-ΔΔCt, GAPDH control
Description: as §8, §9

CCL5 = CCL5 production by LPS-stimulated PBMCs (multiplex); type: cell-based, human; conditions: 1×10^−4M anti-oxidant 2 hrs, then LPS 18 hrs
Excerpt: as §1, §2, §3

[4] = HGF and HPDF, Example 4 metal concentrations

O=C(CCc1ccc(O)cc1)c1c(O)cc(O)cc1O [phloretin]
production of IL-1Ra (IL-1Ra): inhibited the production
TNF-α production (TNF-α): Significant inhibition
G-CSF production (G-CSF): inhibited
production of IL-10 (IL-10): inhibited the production
production of IL-6 (IL-6): inhibited the production
IFN-γ induced by LPS stimulation (IFN-γ): abolished
production of IL-1α (IL-1α): inhibited the production

[Cl][Cu][Cl] [Cu, CuCl2]
effect of metal on ROS [1]: increased ROS
viable cells after incubation with metal (MTS) [2]: dose-dependent decrease of viable cells
effect of metal on ROS [3]: increased ROS

[Cl][Ni][Cl] [Ni, NiCl2]
effect of metal on ROS [1, 4]: little effect on ROS
viable cells after incubation with metal (MTS) ([2]; HGF cells, 30 and 60 minutes): dose-dependent decrease of viable cells
effect of metal on ROS ([3]; HGF cells): increased ROS

Oc1ccc(C=Cc2cc(O)cc(O)c2)cc1 [resveratrol]
reduction of IκB-α mRNA expression (IκB-α mRNA): ~50%
levels of IL-1β (IL-1β): decreased levels
production of IL-1Ra (IL-1Ra): inhibited the production
TNF-α production (TNF-α): Significant inhibition
G-CSF production (G-CSF): inhibited
production of IL-10 (IL-10): inhibited the production
production of IL-6 (IL-6): inhibited the production
IFN-γ induced by LPS stimulation (IFN-γ): abolished
production of IL-1α (IL-1α): inhibited the production

COc1ccc([C@@H]2CC(=O)c3c(O)cc(O)cc3O2)cc1O [hesperetin]
levels of IL-1β (IL-1β): decreased levels
TNF-α production (TNF-α): Significant inhibition
G-CSF production (G-CSF): inhibited
production of IL-6 (IL-6): inhibited the production
IFN-γ induced by LPS stimulation (IFN-γ): abolished
production of IL-1α (IL-1α): inhibited the production

[Cl-].[Cl-].[Zn+2] [Zn, ZnCl2]
effect of metal on ROS [1, 4]: little effect on ROS
viable cells after incubation with metal (MTS) ([2]; HGF cells, 30 and 60 minutes): dose-dependent decrease of viable cells
effect of metal on ROS ([3]; HGF cells): increased ROS

COc1cc(/C=C/C(=O)O)ccc1O [ferulic acid]
reduction of TNF-α mRNA expression levels (TNF-α mRNA): not
TNF-α production (TNF-α): no observed effect
production of CCL5 (CCL5): Apart from ferulic acid
